Data on ten compounds can be found in patent US20230265116A1, “DEGRADATION OF (EGFR) BY CONJUGATION OF EGFR INHIBITORS WITH E3 LIGASE LIGAND AND METHODS OF USE” (BEIGENE, LTD., priority 2020, published 2023).

Read-outs that look alike come from different tables or passages of the source. Bounds are passed on as bounds.

Common to all, as to format: cell-based
Assay [1] has as its target T1, EGFR L858R/C797S (BaF3 LC cells) (Homo sapiens, UniProt P00533, C797S/L858R).
T1 construct: expressed in transfected cells; host or cells: BaF3
Description: EGFR degradation HTRF assay, BaF3 LC cells. On the technique in general: Time-resolved FRET reads energy transfer from a long-lived donor to a nearby acceptor.

In assay [2] the target is T2, EGFR L858R/T790M/C797S (BaF3-LTC cells) (Homo sapiens, UniProt P00533, C797S/L858R/T790M).
T2 construct: expressed in transfected cells; host or cells: BaF3
T2 sequence (P00533 25-1210 T790M/C797S/L858R): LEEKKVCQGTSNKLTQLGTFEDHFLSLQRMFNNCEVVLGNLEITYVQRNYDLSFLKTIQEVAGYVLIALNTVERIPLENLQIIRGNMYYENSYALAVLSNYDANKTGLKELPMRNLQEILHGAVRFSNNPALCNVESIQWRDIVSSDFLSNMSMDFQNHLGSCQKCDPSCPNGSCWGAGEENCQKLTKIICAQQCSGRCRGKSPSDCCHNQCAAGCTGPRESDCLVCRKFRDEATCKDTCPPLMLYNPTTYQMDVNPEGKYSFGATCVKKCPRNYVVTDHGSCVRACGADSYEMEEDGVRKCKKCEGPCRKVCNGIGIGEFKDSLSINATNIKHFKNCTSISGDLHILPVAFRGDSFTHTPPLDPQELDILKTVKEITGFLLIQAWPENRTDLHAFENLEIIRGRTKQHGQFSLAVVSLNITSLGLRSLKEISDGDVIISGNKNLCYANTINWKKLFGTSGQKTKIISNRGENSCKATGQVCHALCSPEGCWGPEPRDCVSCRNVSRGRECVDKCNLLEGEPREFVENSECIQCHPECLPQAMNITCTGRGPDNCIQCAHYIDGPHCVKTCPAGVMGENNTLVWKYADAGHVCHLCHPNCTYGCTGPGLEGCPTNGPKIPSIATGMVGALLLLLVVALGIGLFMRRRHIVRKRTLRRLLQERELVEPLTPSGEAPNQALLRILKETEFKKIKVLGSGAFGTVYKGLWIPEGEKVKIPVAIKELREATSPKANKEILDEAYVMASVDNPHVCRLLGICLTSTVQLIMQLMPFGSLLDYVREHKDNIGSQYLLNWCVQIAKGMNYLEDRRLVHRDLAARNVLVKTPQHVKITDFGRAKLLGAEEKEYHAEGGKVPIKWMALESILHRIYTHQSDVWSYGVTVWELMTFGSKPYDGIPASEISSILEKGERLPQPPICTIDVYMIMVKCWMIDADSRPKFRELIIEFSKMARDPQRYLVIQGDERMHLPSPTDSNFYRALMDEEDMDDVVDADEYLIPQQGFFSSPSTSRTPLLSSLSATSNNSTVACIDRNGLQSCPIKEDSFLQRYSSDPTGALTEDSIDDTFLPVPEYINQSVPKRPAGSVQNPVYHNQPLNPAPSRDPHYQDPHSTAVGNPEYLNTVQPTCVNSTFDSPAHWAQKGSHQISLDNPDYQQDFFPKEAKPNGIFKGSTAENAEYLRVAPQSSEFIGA
Description: EGFR degradation HTRF assay, BaF3-LTC cells. In a few lines: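 EGFR remaining after a 16 h, 37 °C exposure (8 doses, 5-fold steps from 10 uM final, 0.2% DMSO) was quantified by HTRF antibodies in cell lysate. Percent inhibition relative to DMSO control was fitted by four-parameter logistic to give DC50; Dmax denotes maximal degradation.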

The test system of assay [3] is EGFR Del19/T790M/C797S (H1975-clone #28). Put plainly: EGFR degradation HTRF assay, H1975-clone #28 DTC cells. A digest of the protocol:
(§1)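 Lentiviral Del19/T790M/C797S (clone #28) or Del19/C797S (clone #23) EGFR expressed in H1975 with endogenous EGFR knocked out. Cells treated 16 h, 37 °C, 8 doses, 5-fold from 10 uM top, 0.2% DMSO; EGFR read by HTRF after lysis. Degradation % vs DMSO control; DC50, Dmax from four-parameter fit.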

Assay [4] has as its system EGFR Del19/C797S (H1975-clone #23). Description: EGFR degradation HTRF assay, H1975-clone #23 DC cells. The note with it: for H1975 #23 DC Dmax (%): maximum percentage of degradation. A digest of the protocol:
as §1

The mark [5] stands for this setting: BaF3 LC, 16h treatment, maximum percentage of degradation; read-out: BaF3 LC Dmax (%).
Where [6] appears, read: BaF3 LC, 16h treatment; read-out: BaF3 LC DC50.
The mark [7] stands for this setting: BaF3-LTC cells; EGFR degradation, IC50 (DC50) from curve fit; read-out: DC50(nM) BaF3-LTC.
Where [8] appears, read: BaF3-LTC cells; maximum percentage of inhibition (degradation); read-out: Dmax (%) BaF3-LTC.
Setting [9] is: H1975 # 28 DTC cells; EGFR degradation, IC50 (DC50) from curve fit; read-out: DC50(nM) H1975 # 28 DTC.
Where [10] appears, read: H1975 # 28 DTC cells; maximum percentage of inhibition (degradation).
[11] abbreviates: H1975 #23 DC, 16h treatment, read-out: H1975 #23 DC DC50.
[12] abbreviates: read-out: DC50(nM) H1975 # 28 DTC; H1975 # 28 DTC cells; EGFR degradation, IC50 (DC50) from curve fit.
The mark [13] stands for this setting: read-out: H1975 #23 DC DC50, 16h treatment.

T1 sequence (P00533 25-1210 C797S/L858R): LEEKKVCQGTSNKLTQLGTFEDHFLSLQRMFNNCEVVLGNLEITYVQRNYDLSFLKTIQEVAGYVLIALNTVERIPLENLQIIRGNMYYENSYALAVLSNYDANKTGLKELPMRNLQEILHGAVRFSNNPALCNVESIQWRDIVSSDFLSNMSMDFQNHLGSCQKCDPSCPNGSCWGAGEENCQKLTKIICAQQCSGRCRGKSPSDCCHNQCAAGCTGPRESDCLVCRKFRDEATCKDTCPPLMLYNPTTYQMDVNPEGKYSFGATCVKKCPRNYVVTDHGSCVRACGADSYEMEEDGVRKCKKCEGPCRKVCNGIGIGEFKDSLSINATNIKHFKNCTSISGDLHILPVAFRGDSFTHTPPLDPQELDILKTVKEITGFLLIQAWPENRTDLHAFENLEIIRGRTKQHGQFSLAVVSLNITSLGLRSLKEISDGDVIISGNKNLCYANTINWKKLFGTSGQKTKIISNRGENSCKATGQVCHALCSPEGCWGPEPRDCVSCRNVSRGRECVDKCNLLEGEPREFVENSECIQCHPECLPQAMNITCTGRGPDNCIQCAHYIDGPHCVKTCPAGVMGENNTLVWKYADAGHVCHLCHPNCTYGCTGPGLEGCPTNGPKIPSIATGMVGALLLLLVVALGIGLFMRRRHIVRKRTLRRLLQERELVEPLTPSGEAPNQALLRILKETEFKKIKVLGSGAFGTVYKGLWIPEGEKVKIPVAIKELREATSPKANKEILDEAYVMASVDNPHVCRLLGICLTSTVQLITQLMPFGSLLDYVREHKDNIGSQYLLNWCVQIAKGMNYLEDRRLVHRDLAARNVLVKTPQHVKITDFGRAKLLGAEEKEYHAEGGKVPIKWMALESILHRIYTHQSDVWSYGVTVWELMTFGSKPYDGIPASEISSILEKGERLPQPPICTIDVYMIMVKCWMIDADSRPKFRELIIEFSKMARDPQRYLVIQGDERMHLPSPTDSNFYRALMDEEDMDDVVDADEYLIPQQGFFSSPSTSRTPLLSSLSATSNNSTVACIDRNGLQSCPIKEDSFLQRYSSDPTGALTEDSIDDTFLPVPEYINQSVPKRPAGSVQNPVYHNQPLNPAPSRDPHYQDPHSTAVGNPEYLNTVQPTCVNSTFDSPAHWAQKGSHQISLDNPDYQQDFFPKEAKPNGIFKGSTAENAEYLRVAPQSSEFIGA

Regarding `CCOc1cc(N2CCC(N3CCN(CCc4cc5oc(=O)n(C6CCC(=O)NC6=O)c5cc4C)CC3)CC2)c(CC)cc1Nc1ncc(Br)c(Nc2ccc3nc(CC)ccc3c2P(C)(C)=O)n1` (stereo not shown) [Example 465, 3-(6-(2-(4-(1-(4-((5-bromo-4-((5-(dimethylphosphoryl)-2-ethylquinolin-6-yl)amino)pyrimidin-2-yl)amino)-5-ethoxy-2-ethylphenyl)piperidin-4-yl)piperazin-1-yl)ethyl)-5-methyl-2-oxobenzo[d]oxazol-3(2H)-yl)piperidine-2,6-dione], the figures for the Dmax in assay [1] (setting [5]) and in assay [2] (setting [8]) were 92.7% and 84.5%, respectively. Besides, the DC50 was 1.94 nM in assay [1] (setting [6]), 2.46 nM in assay [2] (setting [7]), 1.92 nM in assay [3] (setting [9]) and more than 16 nM in assay [4] (setting [11]). The “Dmax (%) H1975 # 28 DTC” value in assay [3] (setting [10]) is reported as 70.68%. In addition, the “H1975 #23 DC Dmax (%)” value in assay [4] (16h treatment) is listed as 48.97%.

As to `CCOc1cc(N2CCC(N3CCN(CCc4cc(F)c([C@H]5CCC(=O)NC5=O)c(F)c4)CC3)CC2)c(CC)cc1Nc1ncc(Br)c(Nc2cc(F)c3nc(C)ccc3c2P(C)(C)=O)n1` [Example 534, (R)-3-(4-(2-(4-(1-(4-((5-bromo-4-((5-(dimethylphosphoryl)-8-fluoro-2-methylquinolin-6-yl)amino)pyrimidin-2-yl)amino)-5-ethoxy-2-ethylphenyl)piperidin-4-yl)piperazin-1-yl)ethyl)-2,6-difluorophenyl)piperidine-2,6-dione], the greatest degradation seen (Dmax) stood at 90.2% in assay [1] (setting [5]) and 93.7% in assay [2] (setting [8]). For the same compound, the DC50 in assay [1] (setting [6]) worked out at 10.2 nM; in assay [2] (setting [7]), 4.2 nM; in assay [3] (setting [9]) it was 0.749 nM; in assay [4] (setting [11]), 2.16 nM. Further, in assay [3] (setting [10]), the “Dmax (%) H1975 # 28 DTC” value was determined as 83.48%. Also, the “H1975 #23 DC Dmax (%)” value in assay [4] (16h treatment) was determined as 80.71%.

For `CCc1ncc2c(P(C)(C)=O)c(Nc3nc(Nc4cc(CC)c(N5CCC(N6CCN(C(=O)[C@@H]7CCN(c8cc(F)c([C@H]9CCC(=O)NC9=O)c(F)c8)C7)CC6)CC5)cc4OC)ncc3Br)ccc2n1` [Example 549, (R)-3-(4-((R)-3-(4-(1-(4-((5-bromo-4-((5-(dimethylphosphoryl)-2-ethylquinazolin-6-yl)amino)pyrimidin-2-yl)amino)-2-ethyl-5-methoxyphenyl)piperidin-4-yl)piperazine-1-carbonyl)pyrrolidin-1-yl)-2,6-difluorophenyl)piperidine-2,6-dione], the DC50 stood at 1.59 nM in assay [1] (setting [6]), 3.1 nM in assay [2] (setting [7]), 0.601 nM in assay [3] (setting [9]) and 2.96 nM in assay [4] (setting [11]). Moreover, the “Dmax (%) H1975 # 28 DTC” value in assay [3] (setting [10]) is 88.85%. In addition, the “H1975 #23 DC Dmax (%)” value in assay [4] (16h treatment) was 63.66%.

As to `CCOc1cc(N2CCC(N3CCN(CCc4cccc5c4C(C)(C)C(=O)N5C4CCC(=O)NC4=O)CC3)CC2)c(CC)cc1Nc1ncc(Br)c(Nc2ccc3nc(CC)ccc3c2P(C)(C)=O)n1` (stereo not shown) [Example 572, 3-(4-(2-(4-(1-(4-((5-bromo-4-((5-(dimethylphosphoryl)-2-ethylquinolin-6-yl)amino)pyrimidin-2-yl)amino)-5-ethoxy-2-ethylphenyl)piperidin-4-yl)piperazin-1-yl)ethyl)-3,3-dimethyl-2-oxoindolin-1-yl)piperidine-2,6-dione], the DC50 in assay [1] (setting [6]) was 3.8 nM; in assay [2] (setting [7]), 3.21 nM; in assay [3] (setting [9]) it was 1.81 nM; in assay [4] (setting [11]), 4.74 nM. In addition, the “Dmax (%) H1975 # 28 DTC” value in assay [3] (setting [10]) is given as 83.86%. In addition, the “H1975 #23 DC Dmax (%)” value in assay [4] (16h treatment) was found to be 69.16%.

Regarding `CCc1cc(Nc2ncc(Br)c(Nc3ccc4nc(C)ccc4c3P(C)(C)=O)n2)c(OC)cc1N1CCC(N2CCN(CCc3cccc4c3oc(=O)n4C3CCC(=O)NC3=O)CC2)CC1` (stereo not shown) [Example 506, 3-(7-(2-(4-(1-(4-((5-bromo-4-((5-(dimethylphosphoryl)-2-methylquinolin-6-yl)amino)pyrimidin-2-yl)amino)-2-ethyl-5-methoxyphenyl)piperidin-4-yl)piperazin-1-yl)ethyl)-2-oxobenzo[d]oxazol-3(2H)-yl)piperidine-2,6-dione], the Dmax in assay [1] (setting [5]) was 91.7%; in assay [2] (setting [8]), 93%. Besides, the half-maximal degradation concentration (DC50) in assay [1] (setting [6]) stood at 22.5 nM; in assay [2] (setting [7]) it was 6.1 nM; in assay [3] (setting [9]), 0.96 nM; in assay [4] (setting [11]) it was 2.04 nM. Further, in assay [3] (setting [10]), the “Dmax (%) H1975 # 28 DTC” value is 84.41%. Besides, in assay [4] (16h treatment), the “H1975 #23 DC Dmax (%)” value is given as 80.87%.

With `CCOc1cc(N2CCC(N3CCN(C(=O)C4CCN(c5cccc6c5oc(=O)n6C5CCC(=O)NC5=O)CC4)CC3)CC2)c(CC)cc1Nc1ncc(Br)c(Nc2ccc3nc(CC)ccc3c2P(C)(C)=O)n1` (stereo not shown) [Example 481, 3-(7-(4-(4-(1-(4-((5-bromo-4-((5-(dimethylphosphoryl)-2-ethylquinolin-6-yl)amino)pyrimidin-2-yl)amino)-5-ethoxy-2-ethylphenyl)piperidin-4-yl)piperazine-1-carbonyl)piperidin-1-yl)-2-oxobenzo[d]oxazol-3(2H)-yl)piperidine-2,6-dione], the Dmax is 91.9% in assay [1] (BaF3, read-out: BaF3 LC Dmax (%)) and 86.5% in assay [2] (read-out: Dmax (%) BaF3-LTC, BaF3-LTC cells; maximum percentage of inhibition (degradation)). Further, the DC50 is 0.871 nM in assay [1] (read-out: BaF3 LC DC50; BaF3 LC, 16h treatment); 5.27 nM in assay [2] (read-out: DC50(nM) BaF3-LTC; BaF3-LTC cells; EGFR degradation, IC50 (DC50) from curve fit); 2.14 nM in assay [3] (setting [12]); 1.06 nM in assay [4] (setting [13]). The “Dmax (%) H1975 # 28 DTC” value in assay [3] (setting [10]) turned out to be 77.65%. In addition, the “H1975 #23 DC Dmax (%)” value in assay [4] (16h treatment) amounted to 64.14%.

For `CCc1cc(Nc2ncc(Br)c(Nc3ccc4c(=O)n(C5CC5)ncc4c3P(C)(C)=O)n2)c(OC)cc1N1CCC(N2CCN(CCc3cc(F)c(C4CCC(=O)NC4=O)c(F)c3)CC2)CC1` (stereo not shown) [Example 521, 3-(4-(2-(4-(1-(4-((5-bromo-4-((2-cyclopropyl-5-(dimethylphosphoryl)-1-oxo-1,2-dihydrophthalazin-6-yl)amino)pyrimidin-2-yl)amino)-2-ethyl-5-methoxyphenyl)piperidin-4-yl)piperazin-1-yl)ethyl)-2,6-difluorophenyl)piperidine-2,6-dione], the greatest degradation seen (Dmax) in assay [1] (setting [5]) turned out to be 74.6%; in assay [2] (setting [8]) it was 87.4%. In addition, the DC50 was 51.6 nM in assay [1] (setting [6]), 17 nM in assay [2] (setting [7]), 1.01 nM in assay [3] (setting [9]) and 5.9 nM in assay [4] (setting [11]). Moreover, in assay [3] (setting [10]), the “Dmax (%) H1975 # 28 DTC” value was determined as 80.24%. Moreover, the “H1975 #23 DC Dmax (%)” value in assay [4] (16h treatment) is on record as 75.56%.

Consider `CCc1cc(Nc2ncc(Br)c(Nc3ccc4nc(C)c(F)cc4c3P(C)(C)=O)n2)c(OC)cc1N1CCC(N2CCN(C(=O)[C@H]3CN(c4cc(F)c([C@H]5CCC(=O)NC5=O)c(F)c4)CC3(C)C)CC2)CC1` [Example 576, (R)-3-(4-((R)-4-(4-(1-(4-((5-bromo-4-((5-(dimethylphosphoryl)-3-fluoro-2-methylquinolin-6-yl)amino)pyrimidin-2-yl)amino)-2-ethyl-5-methoxyphenyl)piperidin-4-yl)piperazine-1-carbonyl)-3,3-dimethylpyrrolidin-1-yl)-2,6-difluorophenyl)piperidine-2,6-dione], for which the DC50 was 15.8 nM in assay [1] (setting [6]), 12.1 nM in assay [2] (setting [7]), 2.8 nM in assay [3] (setting [9]) and 3.59 nM in assay [4] (setting [11]). For the same compound, in assay [3] (setting [10]), the “Dmax (%) H1975 # 28 DTC” value was 81.93%. Also, the “H1975 #23 DC Dmax (%)” value in assay [4] (16h treatment) was determined as 77.19%.

Regarding `CCc1ccc2c(P(C)(C)=O)c(Nc3nc(Nc4cc(CC)c(N5CCC(N6CCN(C(=O)C7CN(c8cc(F)c([C@H]9CCC(=O)NC9=O)c(F)c8)C7)CC6)CC5)cc4OC)ncc3Br)ccc2n1` [Example 755, (R)-3-(4-(3-(4-(1-(4-((5-bromo-4-((5-(dimethylphosphoryl)-2-ethylquinolin-6-yl)amino)pyrimidin-2-yl)amino)-2-ethyl-5-methoxyphenyl)piperidin-4-yl)piperazine-1-carbonyl)azetidin-1-yl)-2,6-difluorophenyl)piperidine-2,6-dione], the DC50 in assay [1] (setting [6]) was determined as 16.4 nM; in assay [2] (setting [7]) it was 4.13 nM; in assay [3] (setting [9]) it was 0.57 nM; in assay [4] (setting [11]) it was 7.68 nM. Moreover, the “Dmax (%) H1975 # 28 DTC” value in assay [3] (setting [10]) is given as 84.62%. Moreover, the “H1975 #23 DC Dmax (%)” value in assay [4] (16h treatment) was found to be 69.09%.

With `CCc1ncc2c(P(C)(C)=O)c(Nc3nc(Nc4cc(CC)c(N5CCC(N6CCN(CCc7ccc8c(c7)oc(=O)n8C7CCC(=O)NC7=O)CC6)CC5)cc4OC)ncc3Br)ccc2n1` (stereo not shown) [Example 499, 3-(6-(2-(4-(1-(4-((5-bromo-4-((5-(dimethylphosphoryl)-2-ethylquinazolin-6-yl)amino)pyrimidin-2-yl)amino)-2-ethyl-5-methoxyphenyl)piperidin-4-yl)piperazin-1-yl)ethyl)-2-oxobenzo[d]oxazol-3(2H)-yl)piperidine-2,6-dione], the DC50 in assay [1] (setting [6]) was 0.955 nM; in assay [2] (setting [7]), 1.95 nM; in assay [3] (setting [12]), 0.185 nM; in assay [4] (setting [13]) it was 0.646 nM. Besides, in assay [3] (setting [10]), the “Dmax (%) H1975 # 28 DTC” value turned out to be 77.41%. For the same compound, the “H1975 #23 DC Dmax (%)” value in assay [4] (16h treatment) is given as 61.96%.

As usually defined, the Dmax is the largest share of the target that was removed. Usually DC50 stands for the concentration giving 50% degradation.
